Assay results published in patent publication US20140199327A1, “METHODS OF PROMOTING DIFFERENTIATION” (Genentech, Inc., priority 2011, published 2014).
Positions count from the first letter of the chain named. Names may count otherwise. Where a SMILES comes first, the peptide text is derived from it. The star is where a group is joined. Cbz = O=C(OCc1ccccc1)*

Tests used:
[1] = test system: proteasome; test: ID2 abundance after proteasome inhibition in 293T cells; type: cell-based, human; conditions: MG-132 10 μM
Experimental: (§1) The human cell lines 143B, 293T, HOS, MG-63, SAOS-2, SJSA, and U2-OS (ATCC) were maintained in DMEM with 10% FBS (Sigma), 10 units/ml penicillin, and 10 μg/ml streptomycin (Gibco). Primary human osteoblasts (PromoCell) were expanded in primary osteoblast medium (PromoCell) and subcultured in DMEM supplemented as above. Primary human mesenchymal stem cells derived from normal bone marrow (Lonza) were subcultured in mesenchymal stem cell growth medium (Lonza). For osteogenic differentiation studies, hMSC were cultured in osteogenic differentiation medium (Lonza) supplemented with 100 ng/mL BMP-9 (R&D Systems). Primary human osteosarcomas were obtained from CytoMix, LLC, and from the Cooperative Human Tissue Network. […] Murine NIH-3T3 (ATCC) were cultured in supplemented DMEM. Wild-type and USP1^−/− DT-40 cells were a kind gift from K. Patel and were cultured in RPMI with 7% FBS and 3% chicken serum (Gibco). MG-132 (Calbiochem) was used at 10 μM. Cycloheximide (Sigma) was used at 25 μg/ml.
(§2) Rat monoclonal antibodies were raised against the C-terminal 100 amino-acids of human USP1 or WDR48 to produce the monoclonal USP1 antibody 5E10 and WDR48 antibody 9F10. […]

[2] = test system: proteasome; test: ID protein abundance after proteasome inhibition in U2-OS cells; type: cell-based, human
Experimental: as §1, §2

[3] = test system: proteasome; test: ID2 abundance after proteasome inhibition in DT40 cells; type: cell-based, chicken
Experimental: as §1

[4] = test system: USP1; test: In vitro deubiquitination assay; type: biochemical, human; conditions: purified USP1 and ubiquitinated ID2 from 293T cells
Experimental: 293T cells were transfected with USP1-Flag, USP1-[…]-Flag or ID2-Flag and HA-ubiquitin in separate batches. Ubiquitinated ID2-Flag was immunoprecipitated as described above from SDS-boiled lysates. USP1 and USP1 […] were immunoprecipitated with Flag M2-agarose beads following lysis in NP-40 lysis buffer. All samples were eluted from beads with 500 μg/ml 3×Flag peptide (Sigma). Samples were recombined in deubiquitination buffer (20 mM HEPES, 20 mM NaCl, 100 μg/ml BSA, 500 μM EDTA, 1 mM DTT, pH=8.3) and incubated for the indicated times at room temperature. Ubiquitin levels were assessed by immunoblot with HA antibodies.

[5] = test system: 143B osteosarcoma xenograft; test: 143B osteosarcoma xenograft model; type: in vivo, NCr nude mice
Experimental: U2-OS, HOS, or SAOS cells were transfected three times with pRS shUSP1 or shCTL as follows: Cells were initially transfected with shUSP1 or shCTL, cultured for 2 days, and selected with puromycin for 3 days. Cells were retransfected with pMACS and shUSP1 or shCTL, cultured for 2 days, sorted by anti-H-2K^k bead sort (Miltenyi), cultured for 1 day, and serially re-transfected with shUSP1 or shCTL. Cells were cultured for an additional 3 days and osteoblast and hMSC markers were assessed by flow cytometry, real-time RT-PCR, and ALP assay. 143B cells were transduced with pTRIPZ-based inducible USP1 or control shRNA vectors and puromycin-resistant cells were subcultured.
8-week-old female NCr nude mice were injected subcutaneously in the right hind flank with 2.5×10^6 143 B shUSP1 cells in a volume of 100 μl of HBSS+matrigel. Doxycycline-treated mice were fed 1 mg/mL solutions of doxycycline in 5% sucrose water. Mice were monitored for tumor establishment and growth as well as body weight changes. When mice in a given group achieved a mean tumor volume of 2000 mm^3 and/or reached 78 days post-inoculation, mice were euthanized and dissected to confirm the presence or absence of tumor formation.

[6] = biological target: T1, endogenous USP1 (U2-OS and HOS osteosarcoma cells) (human, UniProt O94782 1-785); test: immunoprecipitation of endogenous USP1 from U2-OS cells, blot for ID2; control with nonspecific IgG
T1 construct: Endogenous protein immunoprecipitated from human cell lines
T1 sequence: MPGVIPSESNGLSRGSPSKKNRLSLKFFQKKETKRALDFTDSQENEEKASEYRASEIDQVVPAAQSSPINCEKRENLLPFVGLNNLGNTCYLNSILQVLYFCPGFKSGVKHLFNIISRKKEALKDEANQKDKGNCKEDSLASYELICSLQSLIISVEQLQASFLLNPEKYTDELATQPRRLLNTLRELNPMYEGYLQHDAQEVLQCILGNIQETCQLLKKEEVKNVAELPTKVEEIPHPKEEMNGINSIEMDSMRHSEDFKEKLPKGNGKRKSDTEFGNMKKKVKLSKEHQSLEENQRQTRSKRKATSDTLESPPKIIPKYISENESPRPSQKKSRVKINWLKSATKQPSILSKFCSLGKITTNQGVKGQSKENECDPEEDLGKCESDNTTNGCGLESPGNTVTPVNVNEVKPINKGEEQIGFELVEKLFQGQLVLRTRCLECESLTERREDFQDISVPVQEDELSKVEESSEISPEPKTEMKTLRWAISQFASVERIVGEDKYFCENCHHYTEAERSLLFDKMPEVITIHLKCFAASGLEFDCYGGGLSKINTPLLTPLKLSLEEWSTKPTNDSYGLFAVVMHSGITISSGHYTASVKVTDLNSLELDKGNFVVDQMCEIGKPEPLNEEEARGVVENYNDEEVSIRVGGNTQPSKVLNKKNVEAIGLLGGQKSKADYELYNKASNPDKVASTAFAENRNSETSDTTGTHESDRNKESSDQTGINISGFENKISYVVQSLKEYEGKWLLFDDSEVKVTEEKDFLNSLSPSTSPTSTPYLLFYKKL

[7] = biological target: T2, ID2 (co-transfected / co-expressed in 293T cells)
T2 chain: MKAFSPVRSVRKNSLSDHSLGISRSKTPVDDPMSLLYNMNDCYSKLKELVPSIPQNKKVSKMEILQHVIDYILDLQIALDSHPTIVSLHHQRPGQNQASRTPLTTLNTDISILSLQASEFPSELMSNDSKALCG

[8] = biological target: T3, ubiquitinated ID2-Flag (ID2 with C-terminal Flag epitope, modified with HA-ubiquitin, affinity purified from 293T cells)
T3 chain: T2 chain

Molecule: CC(C)C[C@@H](C=O)NC(=O)[C@H](CC(C)C)NC(=O)[C@H](CC(C)C)NC(=O)OCc1ccccc1 [MG-132] (Cbz-Leu-Leu-Leu-aldehyde)
- endogenous ID2 abundance [1]: ID2 accumulates
- ID expression after USP1 knockdown ([2]; U2-OS cells with USP1 knockdown): did restore ID expression
- ID protein abundance ([2]; U2-OS cells, MG-132 alone): did not by itself alter ID protein abundance
- ID2 abundance ([3]; USP1−/− DT40 cells): increased ID2
- ID2 abundance ([3]; wild-type DT40 cells): not

Molecule: CCN1C(=O)C=CC1=O [N-ethylmaleimide]
- decrease in ID2 ubiquitination by USP1 [4]: sensitive

Molecule: doxycycline-induced USP1 shRNA: doxycycline-inducible pTRIPZ shRNA targeting human USP1, 5′-AGGCAATACTTGCTATCTTAAT-3′ (SEQ ID NO:12), Open Biosystems
- xenograft tumors that achieved stasis and differentiation in situ ([5]; 143B USP1-deficient xenograft tumors): four of ten
- ALP activity in xenografts ([5]; 143B xenografts): enhanced ALP activity
- ID1 and ID2 in xenografts ([5]; 143B xenografts, doxycycline): reduced ID1 and ID2
- USP1 expression in xenografts ([5]; 143B xenografts, doxycycline): suppressed USP1 expression
- tumor growth ([5]; 143B xenografts, doxycycline): reduced 143B tumor growth
- osteogenic gene expression in xenografts ([5]; 143B xenografts, RT-PCR, in situ hybridization): promoted OSTEONECTIN, RUNX2, SPP1/OSTEOPONTIN, OSTERIX, and BGLAP/OSTEOCALCIN expression

B1: endogenous ID2 (U2-OS, HOS and 293T cells) (other)
chain: T2 chain
notes: Endogenous protein of human cell lines
- binding result [6]: binds

B2: USP33-Flag (human USP33 with C-terminal Flag epitope) (protein)
chain: MTGSNSHITILTLKVLPHFESLGKQEKIPNKMSAFRNHCPHLDSVGEITKEDLIQKSLGTCQDCKVQGPNLWACLENRCSYVGCGESQVDHSTIHSQETKHYLTVNLTTLRVWCYACSKEVFLDRKLGTQPSLPHVRQPHQIQENSVQDFKIPSNTTLKTPLVAVFDDLDIEADEEDELRARGLTGLKNIGNTCYMNAALQALSNCPPLTQFFLDCGGLARTDKKPAICKSYLKLMTELWHKSRPGSVVPTTLFQGIKTVNPTFRGYSQQDAQEFLRCLMDLLHEELKEQVMEVEEDPQTITTEETMEEDKSQSDVDFQSCESCSNSDRAENENGSRCFSEDNNETTMLIQDDENNSEMSKDWQKEKMCNKINKVNSEGEFDKDRDSISETVDLNNQETVKVQIHSRASEYITDVHSNDLSTPQILPSNEGVNPRLSASPPKSGNLWPGLAPPHKKAQSASPKRKKQHKKYRSVISDIFDGTIISSVQCLTCDRVSVTLETFQDLSLPIPGKEDLAKLHSSSHPTSIVKAGSCGEAYAPQGWIAFFMEYVKRFVVSCVPSWFWGPVVTLQDCLAAFFARDELKGDNMYSCEKCKKLRNGVKFCKVQNFPEILCIHLKRFRHELMFSTKISTHVSFPLEGLDLQPFLAKDSPAQIVTYDLLSVICHHGTASSGHYIAYCRNNLNNLWYEFDDQSVTEVSESTVQNAEAYVLFYRKSSEEAQKERRRISNLLNIMEPSLLQFYISRQWLNKFKTFAEPGPISNNDFLCIHGGVPPRKAGYIEDLVLMLPQNIWDNLYSRYGGGPAVNHLYICHTCQIEAEKIEKRRKTELEIFIRLNRAFQKEDSPATFYCISMQWFREWESFVKGKDGDPPGPIDNTKIAVTKCGNVMLRQGADSGQISEETWNFLQSIYGGGPEVILRPPVVHVDPDILQAEEKIEVETRSL
- deubiquitinating activity against ID2 [7]: unlike USP1, USP33 lacked deubiquitinating activity against ID2 (data not shown)

B3: USP1-Flag (wild-type human USP1 with in-frame C-terminal Flag epitope) (protein)
chain: T1 sequence
- in vitro deubiquitination assay (HA-ubiquitin immunoblot of ID2-Flag) [8]: Ubiquitinated ID2 was decreased by wild-type USP1 but not USP1 C90S

B4: USP1 C90S-Flag (catalytically inactive point mutant of human USP1 with C-terminal Flag epitope) (protein)
chain: T1 sequence with C90S
- in vitro deubiquitination assay (HA-ubiquitin immunoblot of ID2-Flag) [8]: Ubiquitinated ID2 was decreased by wild-type USP1 but not USP1 C90S
